Columns and labels:
SLY (hemolysin) [1] = target: T1, SLY (hemolysin) (Streptococcus suis, UniProt Q55996); test: biochemical
SLY (hemolysin) [2] = target: T1, SLY (hemolysin); test: biochemical; details: read-out: % inhibition at 16 μg/mL

T1 sequence (Q55996 28-497 limits assumed): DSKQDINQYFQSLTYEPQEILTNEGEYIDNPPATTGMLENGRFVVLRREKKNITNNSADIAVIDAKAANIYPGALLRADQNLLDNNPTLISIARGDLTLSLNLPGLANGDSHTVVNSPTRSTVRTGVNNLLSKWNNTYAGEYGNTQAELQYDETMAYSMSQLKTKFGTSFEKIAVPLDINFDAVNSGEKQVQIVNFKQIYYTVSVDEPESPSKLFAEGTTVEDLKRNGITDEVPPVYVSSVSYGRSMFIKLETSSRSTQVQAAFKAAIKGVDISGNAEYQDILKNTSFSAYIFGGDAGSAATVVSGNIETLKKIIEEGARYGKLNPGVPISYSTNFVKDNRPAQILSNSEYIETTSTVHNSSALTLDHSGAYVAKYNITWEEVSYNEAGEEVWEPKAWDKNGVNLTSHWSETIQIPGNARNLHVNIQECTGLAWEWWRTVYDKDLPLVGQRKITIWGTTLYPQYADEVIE

Cc1ccc([C@@H]2O[C@H](CO)[C@@H](O)[C@H](O)[C@H]2O)cc1Cc1ccc(-c2ccc(F)cc2)s1 [canagliflozin]
Kd (SLY (hemolysin) [1]): 900 nM
inhibition at 16 µg/mL (SLY (hemolysin) [2]): 76%
